{
  "source": "paper PMC12030253",
  "about": "“New Temporin A Analogues Modified in Positions 1 and 10—Synthesis and Biological Studies” (Pharmaceutics, 2025)",
  "origin": "cited, not measured here",
  "set-up_in_all_cases": "method as in PMID 38931840",
  "key": {"[1]": {"tested_on": "Arthrobacter oxydans NBIMCC 9333", "settings": "broth dilution, 0-320 µg/mL, 24 h; cited from earlier work"}, "MCF-12F cells": {"tested_on": "MCF-12F cells", "settings": "MTT, 72 h, non-tumorigenic cells; read-out: Mean IC50 ± SD MCF-12F; cited from earlier work"}, "[2]": {"tested_on": "Candida albicans NBIMCC 74", "settings": "broth dilution, 0-320 µg/mL, 24 h; cited from earlier work"}, "MCF-7 cells": {"tested_on": "MCF-7 cells", "settings": "cited from earlier work"}, "BALB 3T3 cells": {"tested_on": "BALB 3T3 cells", "settings": "cited from earlier work; for CC50: BALB 3T3 cells, NRU"}, "MDA-MB-231 cells": {"tested_on": "MDA-MB-231 cells", "settings": "cited from earlier work"}, "[3]": {"tested_on": "Bacillus subtilis NBIMCC 3562", "settings": "broth dilution, 0-320 µg/mL, 24 h; cited from earlier work"}, "[4]": {"tested_on": "Pseudomonas aeruginosa NBIMCC 3700", "settings": "broth dilution, 0-320 µg/mL, 24 h; cited from earlier work"}, "[5]": {"tested_on": "Escherichia coli NBIMCC 8785", "settings": "20 µL per disk, cited from earlier work"}, "[6]": {"tested_on": "Escherichia coli NBIMCC 8785", "settings": "broth dilution, 0-320 µg/mL, 24 h; cited from earlier work"}, "[7]": {"tested_on": "Bacillus subtilis NBIMCC 3562", "settings": "cited from earlier work; for Percentage-based inhibition compared to antibiotic, B. subtilis 3562: chloramphenicol taken as 100%; for Inhibition zone B. subtilis 3562: 20 µL per disk"}, "[8]": {"tested_on": "Arthrobacter oxydans NBIMCC 9333", "settings": "cited from earlier work; for Percentage-based inhibition compared to antibiotic, A. oxydans 9333: gentamicin taken as 100%; for Inhibition zone A. oxydans 9333: 20 µL per disk"}, "[9]": {"tested_on": "Pseudomonas aeruginosa NBIMCC 3700", "settings": "cited from earlier work; for Percentage-based inhibition compared to antibiotic, P. aeruginosa 3700: gentamicin taken as 100%; for Inhibition zone P. aeruginosa 3700: 20 µL per disk"}},
  "note": "Like-named read-outs stand apart in the source and are kept apart here. Ends that are not written are not given here.",
  "data": [
    {"substance": "FLPLIGRVL-S-GILNH2 (FLPLIGRVLSGIL-NH2) [DTA, parent peptide Temporin A, C-terminal amide]", "values": [
      {"measurement": "MIC A. oxydans 9333", "setting": "[1]", "result": 80, "unit": "mg/L"},
      {"measurement": "IC50", "setting": "MCF-12F cells", "result": "139 ± 8.36", "unit": "µM"},
      {"measurement": "MIC C. albicans 74", "setting": "[2]", "result": 320, "unit": "mg/L"},
      {"measurement": "IC50", "setting": "MCF-7 cells; MTT, 72 h, read-out: Mean IC50 ± SD MCF-7", "result": "73.2 ± 3.36", "unit": "µM"},
      {"measurement": "Selectivity Index (SI) MCF-7", "setting": "MCF-7 cells; SI = IC50 (MCF-12F)/IC50 (MCF-7)", "result": 1.90},
      {"measurement": "CC50", "setting": "BALB 3T3 cells; irradiated 2.4 J/cm^2, read-out: Mean CC50 ± SD +Irr", "result": "105 ± 4.88", "unit": "µM"},
      {"measurement": "CC50", "setting": "BALB 3T3 cells; without irradiation, read-out: Mean CC50 ± SD −Irr", "result": "106 ± 4.18", "unit": "µM"},
      {"measurement": "PIF (Photo-Irritation Factor)", "setting": "BALB 3T3 cells; PIF < 2 not phototoxic", "result": 1.01},
      {"measurement": "IC50", "setting": "MDA-MB-231 cells; MTT, 72 h, read-out: Mean IC50 ± SD MDA-MB-231", "result": "115 ± 4.04", "unit": "µM"},
      {"measurement": "Selectivity Index (SI) MDA-MB-231", "setting": "MDA-MB-231 cells; SI = IC50 (MCF-12F)/IC50 (MDA-MB-231)", "result": 1.20},
      {"measurement": "MIC B. subtilis 3562", "setting": "[3]", "result": 80, "unit": "mg/L"},
      {"measurement": "MIC P. aeruginosa 3700", "setting": "[4]", "result": 320, "unit": "mg/L"},
      {"measurement": "Inhibition zone E. coli 8785", "setting": "[5]; peptide 1.4 mg/mL", "result": 0, "unit": "mm"},
      {"measurement": "Inhibition zone E. coli 8785", "setting": "[5]; peptide 10 mg/mL", "result": 0, "unit": "mm"},
      {"measurement": "MIC E. coli 8785", "setting": "[6]", "result": 320, "unit": "mg/L"},
      {"measurement": "Percentage-based inhibition compared to antibiotic, B. subtilis 3562", "setting": "[7]; 1.4 mg/mL", "result": 33.8, "unit": "%"},
      {"measurement": "Percentage-based inhibition compared to antibiotic, B. subtilis 3562", "setting": "[7]; 10 mg/mL", "result": 33.8, "unit": "%"},
      {"measurement": "Inhibition zone B. subtilis 3562", "setting": "[7]; peptide 1.4 mg/mL", "result": "8.8 ± 0.3", "unit": "mm"},
      {"measurement": "Inhibition zone B. subtilis 3562", "setting": "[7]; peptide 10 mg/mL", "result": "8.8 ± 0.8", "unit": "mm"},
      {"measurement": "Percentage-based inhibition compared to antibiotic, A. oxydans 9333", "setting": "[8]; 1.4 mg/mL", "result": 37.8, "unit": "%"},
      {"measurement": "Percentage-based inhibition compared to antibiotic, A. oxydans 9333", "setting": "[8]; 10 mg/mL", "result": 53.9, "unit": "%"},
      {"measurement": "Inhibition zone A. oxydans 9333", "setting": "[8]; peptide 1.4 mg/mL", "result": "6.8 ± 0.3", "unit": "mm"},
      {"measurement": "Inhibition zone A. oxydans 9333", "setting": "[8]; peptide 10 mg/mL", "result": "9.7 ± 0.6", "unit": "mm"},
      {"measurement": "Percentage-based inhibition compared to antibiotic, P. aeruginosa 3700", "setting": "[9]; 1.4 mg/mL", "result": 45.9, "unit": "%"},
      {"measurement": "Percentage-based inhibition compared to antibiotic, P. aeruginosa 3700", "setting": "[9]; 10 mg/mL", "result": 54.7, "unit": "%"},
      {"measurement": "Inhibition zone P. aeruginosa 3700", "setting": "[9]; peptide 1.4 mg/mL", "result": "7.8 ± 0.3", "unit": "mm"},
      {"measurement": "Inhibition zone P. aeruginosa 3700", "setting": "[9]; peptide 10 mg/mL", "result": "9.3 ± 0.6", "unit": "mm"}
    ]}
  ]
}
